# Experimental data taken from patent US8815249B2 (priority 1999, dated 2014).
# “Also recorded” adds a separate entry of the source. Read-outs that look alike come from different tables or passages of the source. Non-standard residues stand in square brackets, D forms with d. Ava = NCCCCC(=O)O
# Key:
# [1] = system: MHC Class II molecules; conditions: cited from earlier work
# [2] = system: HIV gp160(843-855) peptide; assay type: in vivo; conditions: B10.A (5R) mice, peptides in saline solution, serum day 35
# Method: An ELISA assay for antibody responses following immunization with the experimental peptides indicated above was performed as follows. Fifty microliters (μl) of a solution of the coating peptide at 2 μg/well in 0.1 M carbonate buffer, pH 9.5 was added to each well of a 96-well Nunc-immunoplate (#442404) for an overnight incubation at 4° C. After aspiration, 250 μl of phosphate-buffer saline solution containing 3% fetal bovine serum (assay diluent) was added to each well for 2 hr at RT. After washing three times with assay diluent, 50 μl of 20-times diluted mouse serum in 1:3 serial dilution in assay diluent was added to each well for 2 hr at RT. After washing three times with assay diluent, 50 μl of 1 ÿg/ml biotinylated goat anti-mouse IgG1 or IgG2a was added to each well and incubated for 1 hr at RT. After washing three times with assay diluent, 50 μl of streptavidin-horse radish peroxidase conjugate (1:1000) was added to each well and incubated for 30 min at RT. After washing three times with assay diluent, 100 μl of tetramethylbenzidine/H2O2 solution (Pharmingen 264KK) was added to each well for 15 min in the dark at room temperature. The reaction was stopped with 100 μl 1N H2SO4 in each well and the absorbance was read immediately at 450 nm.
# B10.A (5R) mice (H-2^k/b) were immunized with 20 nmole of peptides in 50 μl phosphate-buffered saline solution, intramuscularly in right and left rear legs on days 1 and 2, respectively. On day 14 the mice were boosted intramuscularly with 40 nmole of peptides in 200 μl Hank's balanced salts solution intramuscularly in a rear leg. On day 30 the mice were boosted intravenously with 40 nmole peptides dissolved in Hank's balanced salts solution (HBSS). On day 35 the mice were sacrificed and serum samples were assayed for antibody titers against the HIV gp160(843-855) peptide.
# [3] = system: splenic T cells; parameters: species or system B10(A) 5R mice; conditions: mouse, in vivo
# [4] = system: splenic T cells; assay type: in vivo; conditions: C3H/HeJ mice, spleen cells day 35 re-stimulated with HIV gp160(843-855) peptide, triplicate wells
# Method: An ELISPOT assay for IFN-γ cytokine responses was performed in order to titer more exactly splenic T lymphocyte subset responses to immunization with Ii-Key-ava-gp160(843-855) or gp160(843-855). The assay was performed as follows. A solution of the cytokine-specific capture antibody (100 μl at 6 μg/ml in phosphate-buffered saline solution, pH 7.2) was added to each well of a 96-well Immunospot plate (M200) for an overnight incubation at 4° C. After aspiration, phosphate-buffer saline solution 200 μl containing 10% fetal bovine serum and 1% penicillin-streptomycin-glutamine (mouse medium) was added to each well for 2 hr at RT. After washing four times with 1% Tween-20 in phosphate-buffered saline solution (wash buffer I), 100 μl of single cell suspensions from the spleens of immunized mice at 10^6 cells/well were re-stimulated with 100 μl of peptide-epitope at 5 μg/well in mouse medium and incubated for 20-40 hr at 37° C., 5% CO2. After washing twice with phosphate-buffered saline solution (wash buffer II) and four times with wash buffer I, 100 μl of 2 ÿg/ml biotinylated anti-mouse IFN-γ in 1× phosphate buffer saline with 10% fetal bovine serum (dilution buffer) was added to each well for 2 hr at RT. After washing five times with wash buffer I, 100 il of streptavidin-horse radish peroxidase conjugate (1:500) in dilution buffer was added to each well for 1 hr at RT. After washing four times with wash buffer I and two times with wash buffer II, 100 μl of the 3-amino-9-ethylcarbazole/H2O2 substrate (Pharmingen 551951) was added and incubated for 30-60 min in the dark at RT. The reaction was stopped by washing three times with 200 μl of deionized water. ELISPOT data analysis was performed by using the Immunospot 1.7e software ([…]). […] Additional counting parameters for spot size and circularity were applied to gate out speckles caused by non-specific antibody binding. Each spot represents a single cell secreting IFN-γ.
# C3H/HeJ(H-2^k) mice were immunized with 40 nmole of peptides (50 μl) emulsified with equal volume of incomplete Freund's adjuvant (IFA), subcutaneously at the base of the tail. On day 13 the mice were boosted subcutaneously at the base of the tail with 40 nmole of peptides (50 μl) emulsified with equal amount of incomplete Freund's adjuvant (IFA). On day 31, the mice were boosted intravenously with 40 nmole peptides dissolved in 100 μl Hank's balanced salts solution (HBSS). On day 35, the mice were sacrificed and single cell suspensions from spleens were assayed for IFN-γ responses to HIV gp160(843-855) peptide.
# Number is the mean number of spots (and standard deviation) in triplicate wells and Size is the mean spot size in mm^2 (and standard deviation). Ii-Key/gp160(844-855) has one ava spacer (Ii-key-ava-gp160(844-855)).
# [5] = system: tumor cells expressing CEA; conditions: cited from earlier work
# [6] = system: total splenic cells from DR4-IE Tg mice; assay: IFN-γ ELISPOT recall response, total splenic cells, Ii-Key/gp100 hybrids; assay type: in vivo; conditions: specificity control
# Source text: Immunizations. DR4-IE Tg mice were immunized subcutaneously at the base of the tail with 40 nmole or 60 nmole of Ii-Key/gp100 MHC class II hybrid or epitope-only peptides, dissolved in saline and emulsified with an equal volume of either IFA or CFA. The synthetic phosphorothioate-modified CpG ODN 1826, 5′ TCC […] CTG ACGTT 3′ (SEQ ID NO.: 906) immunostimulatory nucleotide (CpG motif underlined) was purchased from Oligos Etc. (Wilsonville, Oreg.). DR4-IE Tg mice were vaccinated s.c. with 60 nmole of designated immunogen in an emulsion with IFA and 60 μg CpG. […]
# ELISPOT assays. […] Digitalized images of spots were analyzed with a Series 1 Immunospot Analyzer and Immunospot 1.7e software (Cellular Technology Limited, Cleveland, Ohio). Criteria for spot size, circularity and color density were determined by comparing control and experimental wells. […] Only areas meeting the specified criteria were counted as spots. Mean and standard deviations were calculated for all assays. […]
# Structure-activity rules identified in study. The stimulation of splenic mononuclear lymphocytes from HLA-DR4-IE Tg mice immunized with, respectively, with each of the peptides of Table 1.2 with complete Freund's adjuvant (CFA), was determined in an ELISPOT assay for IFN-γ, IL-4 and IL-2. […]
# [7] = system: HLA alleles of the A2 supertype (A2.2, A2.3, A2.6 and A6802); conditions: cited from earlier work
# [8] = system: purified splenic CD4+ Th cells; parameters: species or system DR4-IE Tg mice; conditions: mouse, in vivo, sc
# [9] = system: PGCC(95-104) epitope peptide; parameters: species or system C3H/HeJ mice; conditions: mouse, in vivo
substance,measurement,setting,value
LRMKLPK (printed: Leu-Arg-Met-Lys-Leu-Pro-Lys),activity of Ii-Key peptides in presentation of antigenic peptides,[1],significantly greater activity
LRMKLPKPPKPVSQMR [Ii(77-92)],activity of Ii-Key peptides in presentation of antigenic peptides,[1],enhanced presentation of antigenic peptides
Ac-LRMK-AYRAIRHIPR-NH2 (Ac-LRMKAYRAIRHIPR-NH2) [gp160(843-855)],"Antibody induction, ELISA against HIV gp160(843-855) peptide",[2]; Dilution^−1 20,0.052
same,"Antibody induction, ELISA against HIV gp160(843-855) peptide",[2]; Dilution^−1 60,0.023
same,"Antibody induction, ELISA against HIV gp160(843-855) peptide",[2]; Dilution^−1 180,0.000
same,"Antibody induction, ELISA against HIV gp160(843-855) peptide",[2]; Dilution^−1 540,−0.005
same,Percentage of cells CD3^+/IFN-γ^+,[3],2.05%
same,Percentage of cells CD4^+,[3],31.03%
same,Percentage of cells CD4^+/IFN-γ^+,[3],0.94%
same,Number (mean number of IFN-γ ELISPOT spots and standard deviation),[4],5 (+/−3.6)
same,Size (mean spot size and standard deviation),[4],0.019 (+/−0.01) mm^2
QYSWFVNGTF [9.5.4],CTL induction,[5],elicited CTL lines that lysed tumor cells
LRMK,activity of Ii-Key peptides in presentation of antigenic peptides,[1],half-maximal activity
GVGSPYVSRLLGICL [HER-2/neu (776-790) epitope],spots on in vitro stimulation with non-specific DR4 restricted epitope,[6]; immunization in CFA,Less than 10 spots/well
same,spots on stimulation with non-specific HLA-DR4-restricted epitope,"[6]; b664 CFA, b669 CpG in IFA",non-significant immune response; also recorded: three to six spots
LMTFWNPPV [9.5.2],binding to HLA alleles of the A2 supertype,[7],bound tightly
same,CTL induction,[5],induced vigorous anti-tumor CTL responses
Ac-LRMK-ava-YRAIRHIPR-NH2 (Ac-LRMK[Ava]YRAIRHIPR-NH2; SMILES CC[C@H](C)[C@H](NC(=O)[C@H](C)NC(=O)[C@H](CCCNC(=N)N)NC(=O)[C@H](Cc1ccc(O)cc1)NC(=O)CCCCNC(=O)[C@H](CCCCN)NC(=O)[C@H](CCSC)NC(=O)[C@H](CCCNC(=N)N)NC(=O)[C@H](CC(C)C)NC(C)=O)C(=O)N[C@@H](CCCNC(=N)N)C(=O)N[C@@H](Cc1c[nH]cn1)C(=O)N[C@H](C(=O)N1CCC[C@H]1C(=O)N[C@@H](CCCNC(=N)N)C(N)=O)[C@@H](C)CC) [Ii-Key/one-ava/gp160(844-855)],Number (mean number of IFN-γ ELISPOT spots and standard deviation),[4],59 (+/−5)
same,Size (mean spot size and standard deviation),[4],0.028 (+/−0.006) mm^2
RQLYPEWTEAQRL [Peptide A],IFN-γ spots,[8],491 spots
HLFYSWYK [9.5.6],CTL induction,[5],elicited CTL lines that lysed tumor cells
Ac-LRMK-ava-IAYLKQATAK-NH2 (Ac-LRMK[Ava]IAYLKQATAK-NH2; SMILES CC[C@H](C)[C@H](NC(=O)CCCCNC(=O)[C@H](CCCCN)NC(=O)[C@H](CCSC)NC(=O)[C@H](CCCNC(=N)N)NC(=O)[C@H](CC(C)C)NC(C)=O)C(=O)N[C@@H](C)C(=O)N[C@@H](Cc1ccc(O)cc1)C(=O)N[C@@H](CC(C)C)C(=O)N[C@@H](CCCCN)C(=O)N[C@@H](CCC(N)=O)C(=O)N[C@@H](C)C(=O)N[C@H](C(=O)N[C@@H](C)C(=O)N[C@@H](CCCCN)C(N)=O)[C@@H](C)O) [Ii-Key/PGCC],antibody titers against PGCC epitope,[9],Significantly greater antibody titers
